Measurements published in patent publication US20120225904A1, “New 7-Phenyl-[1,2,4]triazolo[4,3-a]Pyridin-3(2H)-One Derivatives” (priority 2009, published 2012).

target: T1, human p38alfa (SAPKa) enzyme (Homo sapiens, UniProt Q16539); experiment: p38alpha enzymatic inhibition assay (FRET, ATF2 substrate); type: biochemical; settings: 1 h pre-incubation; ATF2 0.62 μM, ATP 60 μM; 1 h at 25° C.; read-out: p38α IC50
T1 construct: purchased University of Dundee
Procedure: Enzymatic activity assay was performed in 96-well microtiter plates (Corning, catalog number # 3686) using a total volume of 50 μl of an assay buffer composed of 50 mM HEPES (4-(2-hydroxyethyl)-1-piperazineethanesulfonic acid) pH 7.5, 10 mM MgCl2, 1.75 mM Na3VO4.
Various concentrations of the test compound or vehicle controls were pre-incubated for one hour with 0.055 μg/ml of the human p38alfa (SAPKa) enzyme (obtained from University of Dundee). The reaction started by addition of biotinylated ATF2 substrate and ATP in concentrations around their Km values (final concentration 0.62 μM and 60 μM respectively) and took place for one hour at 25° C. Addition of the detection reagents, streptavidin—XL665 and anti-phosphoresidue antibody coupled to Europium cryptate, caused the juxtaposition of the cryptate and the XL665 fluorophore, resulting in fluorescence energy transfer (FRET).The FRET intensity depends on the amount of bounded cryptate antibody, which is proportional to the extent of substrate phosphorylation. FRET intensity was measured using Victor 2V spectrofluorometer.
Data were analyzed by non-linear regression (Hill equation) to generate a dose-response curve. The calculated IC50 value is the concentration of the test compound that caused a 50% decrease in the maximal FRET intensity.

T1 sequence (Q16539 whole entry): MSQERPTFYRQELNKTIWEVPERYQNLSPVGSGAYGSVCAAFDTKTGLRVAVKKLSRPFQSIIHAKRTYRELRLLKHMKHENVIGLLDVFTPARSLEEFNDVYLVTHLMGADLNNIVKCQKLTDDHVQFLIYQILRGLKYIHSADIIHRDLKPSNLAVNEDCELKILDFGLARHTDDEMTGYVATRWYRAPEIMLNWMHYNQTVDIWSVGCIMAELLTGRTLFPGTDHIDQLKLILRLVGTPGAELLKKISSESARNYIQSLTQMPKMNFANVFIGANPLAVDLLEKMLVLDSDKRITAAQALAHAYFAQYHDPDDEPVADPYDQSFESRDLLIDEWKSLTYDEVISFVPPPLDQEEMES

Q: For `Cc1c(F)cc(C(=O)NC2CC2)cc1-c1ccn2c(=O)n(CC(C)(C)C)nc2c1` [Example 2, N-cyclopropyl-3-[2-(2,2-dimethylpropyl)-3-oxo-2,3-dihydro[1,2,4]triazolo[4,3-a]pyridin-7-yl]-5-fluoro-4-methylbenzamide], which IC50 is on record?
A: 2 nM

Q: How did the IC50 turn out when `Cc1c(F)cc(C(=O)NC2CC2)cc1-c1ccn2c(=O)n(-c3ccccc3Cl)nc2c1` [Example 7, 3-[2-(2-Chlorophenyl)-3-oxo-2,3-dihydro[1,2,4]triazolo[4,3-a]pyridin-7-yl]-N-cyclopropyl-5-fluoro-4-methylbenzamide] was run?
A: 1.08 nM

Q: For `Cc1ccc2c(NC3CC3)noc2c1-c1ccn2c(=O)n(CC(C)(C)C)nc2c1` [Example 11], which IC50 is on record?
A: 12 nM
